According to US20150246938A1, “NOVEL OLEFIN DERIVATIVE” (SHIONOGI & CO., LTD., priority 2011, published 2015):

target: T1, recombinant human ACC2 (Homo sapiens, UniProt O00763); test: Measurement of inhibitory activity on human ACC2 (MALDI-TOF MS, acetyl CoA to malonyl CoA conversion); assay type: biochemical; settings: inhibition activity on human ACC2, Table 79; read-out: IC50
T1 construct: a cDNA encoding human ACC2 (27-2458) was cloned from human kidney cDNA library (Clontech); His-tag (N); made in house; host or cells: Sf-9 insect cells (Bac-to-Bac baculovirus)
T1 sequence (O00763 27-2458): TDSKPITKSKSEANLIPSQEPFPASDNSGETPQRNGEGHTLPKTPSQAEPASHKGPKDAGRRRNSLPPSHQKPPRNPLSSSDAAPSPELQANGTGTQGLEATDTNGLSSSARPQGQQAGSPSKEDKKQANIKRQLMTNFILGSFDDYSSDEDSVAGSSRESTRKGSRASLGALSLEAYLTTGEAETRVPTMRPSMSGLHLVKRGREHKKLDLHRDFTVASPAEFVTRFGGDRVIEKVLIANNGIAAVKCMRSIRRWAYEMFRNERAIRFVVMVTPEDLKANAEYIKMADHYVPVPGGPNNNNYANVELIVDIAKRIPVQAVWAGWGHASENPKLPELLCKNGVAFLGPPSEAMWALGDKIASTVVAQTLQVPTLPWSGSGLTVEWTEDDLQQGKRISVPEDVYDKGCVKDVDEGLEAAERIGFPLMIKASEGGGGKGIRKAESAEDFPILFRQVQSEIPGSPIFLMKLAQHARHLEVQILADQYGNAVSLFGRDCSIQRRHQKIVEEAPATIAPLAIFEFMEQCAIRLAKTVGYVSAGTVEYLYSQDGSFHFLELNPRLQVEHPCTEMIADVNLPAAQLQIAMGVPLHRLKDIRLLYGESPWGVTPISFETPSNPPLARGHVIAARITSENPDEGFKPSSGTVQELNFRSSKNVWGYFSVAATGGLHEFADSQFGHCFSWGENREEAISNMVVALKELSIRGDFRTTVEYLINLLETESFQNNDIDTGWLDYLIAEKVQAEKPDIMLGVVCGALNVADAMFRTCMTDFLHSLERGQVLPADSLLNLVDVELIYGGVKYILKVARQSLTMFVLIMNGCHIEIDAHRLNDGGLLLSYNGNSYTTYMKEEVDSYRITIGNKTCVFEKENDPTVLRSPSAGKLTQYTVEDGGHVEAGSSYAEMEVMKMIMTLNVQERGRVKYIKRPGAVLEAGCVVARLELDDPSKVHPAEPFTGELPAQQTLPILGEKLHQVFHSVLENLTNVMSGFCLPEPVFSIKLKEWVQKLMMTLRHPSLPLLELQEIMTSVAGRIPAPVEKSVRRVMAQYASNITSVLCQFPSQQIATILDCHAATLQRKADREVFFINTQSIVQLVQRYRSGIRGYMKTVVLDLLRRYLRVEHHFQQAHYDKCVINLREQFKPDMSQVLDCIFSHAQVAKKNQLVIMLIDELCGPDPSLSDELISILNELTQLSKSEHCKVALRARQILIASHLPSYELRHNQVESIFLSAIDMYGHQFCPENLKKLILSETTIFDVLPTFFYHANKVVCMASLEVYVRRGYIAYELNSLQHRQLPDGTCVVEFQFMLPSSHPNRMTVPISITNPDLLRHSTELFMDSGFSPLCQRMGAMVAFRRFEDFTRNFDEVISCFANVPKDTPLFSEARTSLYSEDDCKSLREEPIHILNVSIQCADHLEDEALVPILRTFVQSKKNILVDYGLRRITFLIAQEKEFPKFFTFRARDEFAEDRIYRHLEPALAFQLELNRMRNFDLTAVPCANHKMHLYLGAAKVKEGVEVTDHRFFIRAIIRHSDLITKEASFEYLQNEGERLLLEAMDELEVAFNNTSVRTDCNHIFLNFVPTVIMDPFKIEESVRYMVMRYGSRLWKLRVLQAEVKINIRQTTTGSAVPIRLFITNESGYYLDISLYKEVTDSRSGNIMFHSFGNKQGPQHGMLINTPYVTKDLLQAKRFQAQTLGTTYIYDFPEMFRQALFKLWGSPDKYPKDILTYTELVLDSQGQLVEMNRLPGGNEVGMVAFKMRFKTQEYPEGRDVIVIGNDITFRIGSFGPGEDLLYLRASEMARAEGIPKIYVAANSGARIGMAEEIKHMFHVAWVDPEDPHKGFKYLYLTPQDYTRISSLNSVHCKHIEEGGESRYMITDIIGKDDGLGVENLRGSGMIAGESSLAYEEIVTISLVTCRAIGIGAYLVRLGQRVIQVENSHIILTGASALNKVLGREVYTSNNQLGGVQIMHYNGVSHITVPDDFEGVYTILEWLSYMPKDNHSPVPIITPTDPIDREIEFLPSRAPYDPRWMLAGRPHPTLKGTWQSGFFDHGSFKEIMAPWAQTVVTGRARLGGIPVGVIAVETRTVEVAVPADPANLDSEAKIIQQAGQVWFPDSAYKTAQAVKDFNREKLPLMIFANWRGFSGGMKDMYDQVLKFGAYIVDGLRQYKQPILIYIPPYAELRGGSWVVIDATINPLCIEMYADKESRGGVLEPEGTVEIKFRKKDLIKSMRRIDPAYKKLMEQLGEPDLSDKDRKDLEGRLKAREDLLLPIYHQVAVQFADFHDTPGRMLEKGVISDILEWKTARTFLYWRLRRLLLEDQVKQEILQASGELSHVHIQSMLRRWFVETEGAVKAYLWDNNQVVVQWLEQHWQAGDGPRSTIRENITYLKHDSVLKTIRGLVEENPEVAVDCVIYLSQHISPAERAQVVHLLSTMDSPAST

Structure (SMILES) | IC50 [nM]
CC(=O)N[C@@H](C)/C=C/c1cnc(Oc2ccc(OCC3CC3)cc2C#N)s1 [Compound I-6] | 78
CC(=O)N[C@@H](C)/C=C/c1cnc(Oc2cccc(OCC3CC3)c2Cl)s1 [Compound I-7] | 31
CC(=O)N[C@@H](C)/C=C/c1cnc(Oc2cccc(OC(C)C)c2C)s1 [Compound I-9] | 82
CC(=O)N[C@@H](C)/C=C/c1cnc(N2CCc3cc(OCC4CC4)ccc32)s1 [Compound I-59] | 950
CC(=O)N[C@@H](C)/C=C/c1cnn(Cc2ccc(OCC3CC3)cc2)c1 [Compound I-64] | 5900
CC(=O)N[C@@H](C)/C=C/c1cnn(CCc2ccc(OCC3CC3)cc2)c1 [Compound I-66] | 5700
CC(=O)N[C@@H](C)/C=C/c1cnn(Cc2ccc(OCC3CC3)cc2F)c1 [Compound I-67] | 1200
CC(=O)N[C@@H](C)/C=C/c1cnn(Cc2c(Cl)cc(OCC3CC3)cc2Cl)c1 [Compound I-69] | 470
C[C@@H](/C=C/c1cnc(Oc2ccc(OCC3CC3)cc2Cl)s1)NC(=O)CC#N [Compound I-73] | 53
C[C@@H](/C=C/c1cnc(Oc2ccc(OCC3CC3)cc2Cl)s1)NC(=O)C1(C(N)=O)CC1 [Compound I-74] | 57
C[C@@H](/C=C/c1cnc(Oc2ccc(OCC3CC3)cc2Cl)s1)NC(=O)C1CC1 [Compound I-76] | 30
C[C@@H](/C=C/c1cnc(Oc2ccc(OCC3CC3)cc2Cl)s1)NC(=O)Cc1cccnc1 [Compound I-77] | 48
C[C@@H](/C=C/c1cnc(Oc2ccc(OCC3CC3)cc2Cl)s1)NC(=O)CC(F)(F)F [Compound I-82] | 160
C[C@@H](/C=C/c1cnc(Oc2ccc(OCC3CC3)cc2Cl)s1)NC(=O)C1(C)CC1 [Compound I-83] | 48
C[C@@H](/C=C/c1cnc(Oc2ccc(OCC3CC3)cc2Cl)s1)NC(=O)C1CCOCC1 [Compound I-84] | 460
C[C@@H](/C=C/c1cnc(Oc2ccc(OCC3CC3)cc2Cl)s1)NC(=O)CCCN1CCCC1=O [Compound I-86] | 440
C[C@@H](/C=C/c1cnc(Oc2ccc(OCC3CC3)cc2Cl)s1)NC(=O)CCCn1cncn1 [Compound I-87] | 350
C[C@@H](/C=C/c1cnc(Oc2ccc(OCC3CC3)cc2Cl)s1)NC(=O)CCCN1CCCC1 [Compound I-88] | 890
COC(=O)CCCC(=O)N[C@@H](C)/C=C/c1cnc(Oc2ccc(OCC3CC3)cc2Cl)s1 [Compound I-94] | 140
C[C@@H](/C=C/c1cnc(Oc2ccc(OCC3CC3)cc2Cl)s1)NC(=O)C1(C#N)CC1 [Compound I-97] | 120
CC(C)COCC(=O)N[C@@H](C)/C=C/c1cnc(Oc2ccc(OCC3CC3)cc2Cl)s1 [Compound I-103] | 970
COCCOCC(=O)N[C@@H](C)/C=C/c1cnc(Oc2ccc(OCC3CC3)cc2Cl)s1 [Compound I-104] | 450
C[C@@H](/C=C/c1cnc(Oc2ccc(OCC3CC3)cc2Cl)s1)NC(=O)CN1C(=O)CCC1=O [Compound I-105] | 200
C[C@@H](/C=C/c1cnc(Oc2ccc(OCC3CC3)cc2Cl)s1)NC(=O)CCCCCCNC(=O)OC(C)(C)C [Compound I-106] | 440
COC(=O)c1ccn(CC(=O)N[C@@H](C)/C=C/c2cnc(Oc3ccc(OCC4CC4)cc3Cl)s2)n1 [Compound I-113] | 480
C[C@@H](/C=C/c1cnc(Oc2ccc(OCC3CC3)cc2Cl)s1)NC(=O)CC(N)=O [Compound I-116] | 150
CC(C)S(=O)(=O)NCCCCC(=O)N[C@@H](C)/C=C/c1cnc(Oc2ccc(OCC3CC3)cc2Cl)s1 [Compound I-117] | 38

Second part, the molecule after the results:

IC50 [nM] | Structure (SMILES)
16 | CCCOc1ccc(Oc2ncc(/C=C/[C@H](C)NC(C)=O)s2)c(Cl)c1 [Compound I-2]
52 | CCOc1ccc(Oc2ccc(/C=C/[C@H](C)NC(C)=O)cn2)c(Cl)c1 [Compound I-13]
6.9 | CC(=O)N[C@@H](C)/C=C/c1ccc(Oc2ccc(OCC3CC3)cc2Cl)nc1 [Compound I-14]
71 | CCOc1ccc(COc2ccc(/C=C/[C@H](C)NC(C)=O)cn2)cc1 [Compound I-15]
31 | CCOc1ccc(Oc2ccc(/C=C/[C@H](C)NC(C)=O)cn2)cc1 [Compound I-16]
5.2 | CC(=O)N[C@@H](C)/C=C/c1ccc(Oc2ccc(OCC3CC3)c(Cl)c2)nc1 [Compound I-23]
4.4 | CC(=O)N[C@@H](C)/C=C/c1ccc(Oc2ccc(NCC3CC3)c(Cl)c2)nc1 [Compound I-24]
1200 | COc1ccc(Cl)c(Oc2ccc(/C=C/[C@H](C)NC(C)=O)cn2)c1 [Compound I-27]
97 | COc1cc(Cl)cc(Oc2ccc(/C=C/[C@H](C)NC(C)=O)cn2)c1 [Compound I-28]
94 | COc1cccc(Oc2ccc(/C=C/[C@H](C)NC(C)=O)cn2)c1Cl [Compound I-29]
14 | CC(=O)N[C@@H](C)/C=C/c1ccc(Oc2ccc(N3CCCC3)cc2Cl)nc1 [Compound I-32]
12 | CC(=O)N[C@@H](C)/C=C/c1ccc(Oc2ccc(OCC3CC3)nc2)nc1 [Compound I-33]
7100 | COc1cncc(Oc2ccc(/C=C/[C@H](C)NC(C)=O)cn2)c1 [Compound I-34]
1100 | CCOc1ccc(OCc2ccc(/C=C/[C@H](C)NC(C)=O)cn2)c(Cl)c1 [Compound I-35]
6.5 | CC(=O)N[C@@H](C)/C=C/c1ccc(Oc2ccc(OCC(C)C)cc2Cl)nc1 [Compound I-36]
37 | CC(=O)N[C@@H](C)/C=C/c1ccc(Oc2ccc(OC(C)C)cc2Cl)nc1 [Compound I-37]
9.1 | CCCOc1ccc(Oc2ccc(/C=C/[C@H](C)NC(C)=O)cn2)c(Cl)c1 [Compound I-38]

IC50 [nM] | Structure (SMILES)
11 | CC(=O)N[C@@H](C)/C=C/c1ccc(Oc2ccc(OC3CCC3)cc2Cl)nc1 [Compound I-39]
80 | CC(=O)N[C@@H](C)/C=C/c1ccc(Oc2cc(Cl)cc(OCC3CC3)c2)nc1 [Compound I-43]
83 | CCOc1cc(Cl)cc(Oc2ccc(/C=C/[C@H](C)NC(C)=O)cn2)c1 [Compound I-45]
25 | CC(=O)N[C@@H](C)/C=C/c1ccc(Oc2cccc(OC(C)C)c2Cl)nc1 [Compound I-47]
37 | CCOc1cccc(Oc2ccc(/C=C/[C@H](C)NC(C)=O)cn2)c1Cl [Compound I-48]
72 | CC(=O)N[C@@H](C)/C=C/c1ccc(Oc2cccc(OC(C)C)c2)nc1 [Compound I-49]
54 | CC(=O)N[C@@H](C)/C=C/c1cnc(Oc2ccc(OCC3CC3)cc2Cl)nc1 [Compound I-52]
940 | CC(=O)N[C@@H](C)/C=C/c1cnc(Oc2ccc(NC(=O)OC(C)(C)C)cc2Cl)nc1 [Compound I-53]
430 | CC(=O)N[C@@H](C)/C=C/c1cnc(Oc2ccc(NCC3CC3)cc2Cl)nc1 [Compound I-54]
4500 | CC(=O)N[C@@H](C)/C=C/c1cnc(Oc2ccc(NC(C)C)cc2Cl)nc1 [Compound I-55]
310 | CC(=O)N[C@@H](C)/C=C/c1ccc(Oc2ccc(OCC3CC3)cc2Cl)nn1 [Compound I-56]
2.2 | CC(=O)N[C@@H](C)/C=C/c1ccc(Oc2ccc(OCC3CC3)cc2Cl)cc1 [Compound I-57]
310 | CCOc1ccc(C(F)(F)c2ccc(/C=C/[C@H](C)NC(C)=O)cn2)c(Cl)c1 [Compound I-62]
830 | CC(=O)N[C@@H](C)/C=C/c1cnn(Cc2ccc(OCC3CC3)cc2Cl)c1 [Compound I-63]
230 | CSCCC(=O)N[C@@H](C)/C=C/c1cnc(Oc2ccc(OCC3CC3)cc2Cl)s1 [Compound I-72]
550 | CC(=O)NCC(=O)N[C@@H](C)/C=C/c1cnc(Oc2ccc(OCC3CC3)cc2Cl)s1 [Compound I-78]

same assay, conditions: inhibition activity on human ACC2, Table 80; read-out: IC50

Structure (SMILES) | IC50 [nM]
CC(C)S(=O)(=O)NCCCC(=O)N[C@@H](C)/C=C/c1cnc(Oc2ccc(OCC3CC3)cc2Cl)s1 [Compound I-119] | 61
C[C@@H](/C=C/c1cnc(Oc2ccc(OCC3CC3)cc2Cl)s1)NC(=O)Cc1ccncc1 [Compound I-122] | 150
C[C@@H](/C=C/c1cnc(Oc2ccc(OCC3CC3)cc2Cl)s1)NC(=O)Cn1ccnc1 [Compound I-123] | 180
CCN1CCN(CCC(=O)N[C@@H](C)/C=C/c2cnc(Oc3ccc(OCC4CC4)cc3Cl)s2)CC1 [Compound I-124] | 1400
C[C@@H](/C=C/c1cnc(Oc2ccc(OCC3CC3)cc2Cl)s1)NC(=O)CCO [Compound I-125] | 320
C[C@@H](/C=C/c1cnc(Oc2ccc(OCC3CC3)cc2Cl)s1)NC(=O)[C@H]1CNC(=O)O1 [Compound I-133] | 920
CC(C)S(=O)(=O)NCCC(=O)N[C@@H](C)/C=C/c1cnc(Oc2ccc(OCC3CC3)cc2Cl)s1 [Compound I-134] | 1800
CC(=O)Nc1cc(C(=O)N[C@@H](C)/C=C/c2cnc(Oc3ccc(OCC4CC4)cc3Cl)s2)ccn1 [Compound I-135] | 42
CCOC(=O)c1cc(C(=O)N[C@@H](C)/C=C/c2cnc(Oc3ccc(OCC4CC4)cc3Cl)s2)ccn1 [Compound I-136] | 12
Cc1ccc(-c2cc(C(=O)N[C@@H](C)/C=C/c3cnc(Oc4ccc(OCC5CC5)cc4Cl)s3)ccn2)o1 [Compound I-137] | 630
Cc1nc(C)c(-c2cc(C(=O)N[C@@H](C)/C=C/c3cnc(Oc4ccc(OCC5CC5)cc4Cl)s3)ccn2)s1 [Compound I-138] | 2300
C[C@@H](/C=C/c1cnc(Oc2ccc(OCC3CC3)cc2Cl)s1)NC(=O)c1ccnc(-c2ncco2)c1 [Compound I-139] | 66
C[C@@H](/C=C/c1cnc(Oc2ccc(OCC3CC3)cc2Cl)s1)NC(=O)c1cccc(C2=NCCO2)c1 [Compound I-143] | 800
C[C@@H](/C=C/c1cnc(Oc2ccc(OCC3CC3)cc2Cl)s1)NC(=O)c1cccc(-c2ncco2)c1 [Compound I-144] | 690
CC(=O)c1ccc(C(=O)N[C@@H](C)/C=C/c2cnc(Oc3ccc(OCC4CC4)cc3Cl)s2)s1 [Compound I-148] | 880
CCN1Cc2ccc(C(=O)N[C@@H](C)/C=C/c3cnc(Oc4ccc(OCC5CC5)cc4Cl)s3)cc2C1=O [Compound I-154] | 2700
